Experimental data published in patent US6472348B1, “Pyridone derivatives and herbicides” (Kumiai Chemical Industry Co., Ltd., priority 1996, dated 2002).

What was measured:
[1] = system: common lambsquarters (Ch); assay: Test Example 9: crop plant selectivity by upland field foliage treatment (wheat), herbicidal effects; format: in vivo; parameters: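 grade of growth control; 5 = at least 90%; 4 = 70 to 90%; 3 = 50 to 70%; 2 = 30 to 50%; 1 = 10 to 30%; 0 = under 10%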; conditions: dose 1.6 g ai/10a, 14th day after treatment
Description: (§1) (Test on Crop Plant Selectivity by Upland Field Foliage Treatment)
(§2) In a plastic pot (surface area: 600 cm^2) filled with sand, wheat (Tr), pale smartweed (Po), slender amaranth (Am), common lambsquarters (Ch) and China jute (Ab) were sown and cultured in a green house for 2 weeks. […] The plants were then cultured in a green house, and the evaluation of the herbicidal effects and phytotoxicity was conducted on the 14th day after the treatment in accordance with the standards as identified in Table 47.

[2] = system: pale smartweed (Po); assay: as above; format: in vivo; parameters: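 grade of growth control; 5 = at least 90%; 4 = 70 to 90%; 3 = 50 to 70%; 2 = 30 to 50%; 1 = 10 to 30%; 0 = under 10%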; conditions: dose 1.6 g ai/10a, 14th day after treatment
Description: as §1, §2

[3] = system: slender amaranth (Am); assay: as above; format: in vivo; parameters: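 grade of growth control; 5 = at least 90%; 4 = 70 to 90%; 3 = 50 to 70%; 2 = 30 to 50%; 1 = 10 to 30%; 0 = under 10%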; conditions: dose 1.6 g ai/10a, 14th day after treatment
Description: as §1, §2

[4] = system: China jute (Ab); assay: as above; format: in vivo; parameters: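 grade of growth control; 5 = at least 90%; 4 = 70 to 90%; 3 = 50 to 70%; 2 = 30 to 50%; 1 = 10 to 30%; 0 = under 10%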; conditions: dose 1.6 g ai/10a, 14th day after treatment
Description: as §1, §2

[5] = system: barnyardgrass (Ec); assay: Test Example 2: herbicidal effects by upland field soil treatment; format: in vivo; conditions: 100 g of the active ingredient per 10 ares;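 note: grade of growth control; 5 = at least 90%; 4 = 70 to 90%; 3 = 50 to 70%; 2 = 30 to 50%; 1 = 10 to 30%; 0 = under 10%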
Text: (§3) (Test on Herbicidal Effects by Upland Field Soil Treatment)

[6] = system: Digitaria ciliaris (Di); assay: as above; format: in vivo; conditions: 100 g of the active ingredient per 10 ares;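 note: grade of growth control; 5 = at least 90%; 4 = 70 to 90%; 3 = 50 to 70%; 2 = 30 to 50%; 1 = 10 to 30%; 0 = under 10%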
Text: as §3

[7] = system: common lambsquarters (Ch); assay: as above; format: in vivo; conditions: 100 g of the active ingredient per 10 ares
Text: as §3

[8] = system: pale smartweed (Po); assay: as above; format: in vivo; conditions: 100 g of the active ingredient per 10 ares
Text: as §3

[9] = system: slender amaranth (Am); assay: as above; format: in vivo; conditions: 100 g of the active ingredient per 10 ares
Text: as §3

[10] = system: rice flatsedge (Ci); assay: as above; format: in vivo; conditions: 100 g of the active ingredient per 10 ares
Text: as §3

[11] = system: Diaitaria ciliaris (Di); assay: Test Example 3: herbicidal effects by upland field foliage treatment; format: in vivo; parameters: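 grade of growth control; 5 = at least 90%; 4 = 70 to 90%; 3 = 50 to 70%; 2 = 30 to 50%; 1 = 10 to 30%; 0 = under 10%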
How it was run: (§4)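 Seeds → sand pot (120 cm^2) → soil cover → greenhouse 2 wk → foliar treatment → greenhouse → herbicidal score at 14 d post-treatment against graded standards.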

[12] = system: barnyardgrass (Ec); assay: as above; format: in vivo; parameters: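 grade of growth control; 5 = at least 90%; 4 = 70 to 90%; 3 = 50 to 70%; 2 = 30 to 50%; 1 = 10 to 30%; 0 = under 10%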
How it was run: as §4

[13] = system: common lambsquarters (Ch); assay: as above; format: in vivo; parameters: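 grade of growth control; 5 = at least 90%; 4 = 70 to 90%; 3 = 50 to 70%; 2 = 30 to 50%; 1 = 10 to 30%; 0 = under 10%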
How it was run: as §4

[14] = system: pale smartweed (Po); assay: as above; format: in vivo; parameters: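 grade of growth control; 5 = at least 90%; 4 = 70 to 90%; 3 = 50 to 70%; 2 = 30 to 50%; 1 = 10 to 30%; 0 = under 10%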
How it was run: as §4

[15] = system: slender amaranth (Am); assay: as above; format: in vivo; parameters: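 grade of growth control; 5 = at least 90%; 4 = 70 to 90%; 3 = 50 to 70%; 2 = 30 to 50%; 1 = 10 to 30%; 0 = under 10%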
How it was run: as §4

[16] = system: rice flatsedge (Ci); assay: as above; format: in vivo; parameters: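 grade of growth control; 5 = at least 90%; 4 = 70 to 90%; 3 = 50 to 70%; 2 = 30 to 50%; 1 = 10 to 30%; 0 = under 10%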
How it was run: as §4

[17] = system: bulrush (Sc); assay: Test Example 1: herbicidal effects by paddy field soil treatment; format: in vivo; conditions: 100 g of the active ingredient per 10 ares, 21st day after the application, index 0-5 of Table 47;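 note: grade of growth control; 5 = at least 90%; 4 = 70 to 90%; 3 = 50 to 70%; 2 = 30 to 50%; 1 = 10 to 30%; 0 = under 10%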
How it was run: (§5)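 Greenhouse pot test in flooded paddy soil, dosed at 100 g a.i. per 10 ares; effect scored on day 21.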

[18] = system: barnyardgrass (Ec); assay: as above; format: in vivo; conditions: 100 g of the active ingredient per 10 ares, 21st day after the application, index 0-5 of Table 47
How it was run: as §5

[19] = system: monochoria (Mo); assay: as above; format: in vivo; conditions: 100 g of the active ingredient per 10 ares, 21st day after the application, index 0-5 of Table 47;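 note: grade of growth control; 5 = at least 90%; 4 = 70 to 90%; 3 = 50 to 70%; 2 = 30 to 50%; 1 = 10 to 30%; 0 = under 10%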
How it was run: as §5

[20] = system: wheat (Tr); assay: Test Example 9: crop plant selectivity by upland field foliage treatment (wheat), phytotoxicity; conditions: dose 1.6 g ai/10a, 14th day after treatment
Description: as §1, §2

[21] = 21st day after the application, index 0-5 of Table 47
[22] = 100 g of the active ingredient per 10 ares, evaluated on the 14th day after treatment
[23] = evaluated on the 21st day after application
[24] = 100 g active ingredient per 10 ares, evaluated 14th day after treatment

SMILES | Herbicidal effects Ch [1] | Herbicidal effects Po [2] | Herbicidal effects Am [3] | Herbicidal effects Ab [4] | Herbicidal effects Sc [17] | Herbicidal effects Ec [18] | Herbicidal effects Mo [19] | Phytotoxicity Tr [20] | Herbicidal effects Ec [5, 23] | Herbicidal effects Di [6, 23] | Herbicidal effects Ch [7, 23] | Herbicidal effects Po [8, 23] | Herbicidal effects Am [9, 23] | Herbicidal effects Ci [10, 23] | Herbicidal effects Di [11, 24] | Herbicidal effects Ec [12, 24] | Herbicidal effects Ch [13, 24] | Herbicidal effects Po [14, 24] | Herbicidal effects Am [15, 24] | Herbicidal effects Ci [16, 24] | other results
CCCCCOC(=O)COc1cc(-c2ccc(C(F)(F)F)n(C)c2=O)c(F)cc1Cl [1-20] | 5 | 5 | 5 | 5 | 5 | 5 | 5 | 2 |  |  |  |  |  |  |  |  |  |  |  |  | Herbicidal effects Ec [5, 21]: 5; Herbicidal effects Di [6, 21]: 5; Herbicidal effects Ch [7, 21]: 5; Herbicidal effects Po [8, 21]: 5; Herbicidal effects Am [9, 21]: 5; Herbicidal effects Ci [10, 21]: 5; Herbicidal effects Di [11, 22]: 5; Herbicidal effects Ec [12, 22]: 5; Herbicidal effects Ch [13, 22]: 5; Herbicidal effects Po [14, 22]: 5; Herbicidal effects Am [15, 22]: 5; Herbicidal effects Ci [16, 22]: 5
CCCC(Sc1cc(-c2ccc(C(F)(F)F)n(C)c2=O)c(F)cc1Cl)C(=O)OCC (stereo not drawn) [1-48] | 5 | 5 | 5 | 5 | 5 | 5 | 5 | 2 |  |  |  |  |  |  |  |  |  |  |  |  | Herbicidal effects Di [11, 22]: 5; Herbicidal effects Ec [12, 22]: 5; Herbicidal effects Ch [13, 22]: 5; Herbicidal effects Po [14, 22]: 5; Herbicidal effects Am [15, 22]: 5; Herbicidal effects Ci [16, 22]: 5
Cc1cc2c(-c3ccc(C(F)(F)F)n(C)c3=O)ccc(Cl)c2o1 [Compound 4-24] |  |  |  |  | 5 | 5 | 5 |  | 4 | 5 | 5 | 5 | 5 | 5 | 5 | 4 | 5 | 5 | 5 | 5 | 
Cn1c(C(F)(F)F)ccc(-c2c(Cl)cc(Cl)c3oc(C(Br)Br)cc23)c1=O [Compound 4-29] |  |  |  |  | 5 | 5 | 5 |  | 5 | 5 | 5 | 5 | 5 | 5 | 5 | 5 | 5 | 5 | 5 | 5 | 
CCOCc1cc2c(-c3ccc(C(F)(F)F)n(C)c3=O)c(F)cc(Cl)c2o1 [Compound 4-31] |  |  |  |  | 5 | 5 | 5 |  | 5 | 5 | 5 | 5 | 5 | 5 | 5 | 5 | 5 | 5 | 5 | 5 | 
COC(C)c1cc2c(-c3ccc(C(F)(F)F)n(C)c3=O)c(F)cc(Cl)c2o1 (stereo not drawn) [Compound 4-35] | 5 | 5 | 5 | 5 |  |  |  | 2 | 5 | 5 | 5 | 5 | 5 | 5 | 5 | 5 | 5 | 5 | 5 | 5 | 
